Test results as given in PubChem BioAssay (NCI).
Values joined by “and” are separate entries in the source; they are usually repeats but may differ in a detail not shown here. Equal values may be shown once.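 How tested: cells in 96-well plates exposed to compound for 48 hours at five concentrations. Here, GI50 denotes the concentration required for 50% inhibition of growth. The concentration for full growth arrest is given as TGI.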

Tests used:
Assay in all cases: NCI tumour cell line growth inhibition, 48 h
ACHN renal = test system: ACHN renal
HOP-92 NSCLC = test system: HOP-92 NSCLC
HT29 colon = test system: HT29 colon
IGROV1 ovarian = test system: IGROV1 ovarian
M14 melanoma = test system: M14 melanoma
MOLT-4 leukemia = test system: MOLT-4 leukemia
RXF 393 renal = test system: RXF 393 renal
SW-620 colon = test system: SW-620 colon
TK-10 renal = test system: TK-10 renal
UO-31 renal = test system: UO-31 renal

Structure (SMILES)	GI50 (ACHN renal) [µM]	TGI (ACHN renal)	GI50 (HOP-92 NSCLC) [µM]	TGI (HOP-92 NSCLC) [µM]	GI50 (HT29 colon) [µM]	TGI (HT29 colon) [µM]	GI50 (IGROV1 ovarian) [µM]	TGI (IGROV1 ovarian)	GI50 (M14 melanoma) [µM]	TGI (M14 melanoma) [µM]	GI50 (MOLT-4 leukemia) [µM]	TGI (MOLT-4 leukemia)	GI50 (RXF 393 renal) [µM]	TGI (RXF 393 renal)	GI50 (SW-620 colon) [µM]	TGI (SW-620 colon)	GI50 (TK-10 renal) [µM]	TGI (TK-10 renal)	GI50 (UO-31 renal) [µM]	TGI (UO-31 renal) [µM]
COC1=CC(=O)c2nc(-c3cccc(C)n3)[nH]c2C1=O	25.1	70.3 µM	17.4	43.7	33.4	> 100	20.5	47 µM	35.6	> 100	64.7	> 100 µM	> 100	> 100 µM	21.4	54.8 µM	19.4	40.2 µM	26.4	> 100
CC(=O)CSCc1ccccn1	–	> 100 µM	–	> 100	–	> 100	–	> 100 µM	–	> 100	–	61.4 µM	–	> 100 µM	–	> 100 µM	–	> 100 µM	–	> 100
CN1C(=O)c2cccc3cc([N+](=O)[O-])cc(c23)C1=O	–	> 10 µM	–	> 10	–	> 10	–	> 10 µM	–	> 10	–	> 10 µM	–	–	–	> 10 µM	–	> 10 µM	–	–
CC(=O)[O-].CCN(CC)c1ccc(C=NCCN=Cc2ccc(N(CC)CC)cc2[O-])c([O-])c1.[Mn+3]	> 100	> 100 µM	38.3	93.9	19.9	40.1	29.6	80.3 µM	19.2	35.5	36.5	> 100 µM	20.5	46.5 µM	27.4	66.4 µM	56.6	> 100 µM	> 100	> 100
Cc1nc(N)sc1C(=O)/C=C\c1ccc2c(c1)OCO2	–	> 100 µM	–	> 100	–	> 100	–	> 100 µM	–	> 100	–	> 100 µM	–	> 100 µM	–	> 100 µM	–	> 100 µM	–	> 100
O=C1OC(C(O)CO)C(=O)C1=O (stereo unspecified)	2860	> 10000 µM	2060	4230	4240	> 10000	2350	5170 µM	6700	> 10000	4120	> 10000 µM	1700	3210 µM	2070	5080 µM	2080	3570 µM	1850	4600
Cc1cccc(N2CCN(C(=S)c3ccc4c(c3)OCO4)CC2)c1	3.88	> 100 µM	24.6	> 100	–	–	1.21	> 100 µM	0.463	> 100	15.8	> 100 µM	1.14	5.82 µM	0.467	> 100 µM	–	–	14.4	> 100
Cc1cccc(NC(=O)C(=O)C(C(=O)c2ccc3ccccc3c2)C2OC(=O)c3ccccc32)c1C (stereo unspecified)	–	81.4 µM	–	36.8	–	64.4	–	57.7 µM	–	33.4	–	32.2 µM	–	11.6 µM	–	24.2 µM	–	50.9 µM	–	35.7
CCC[CH2][Sn]1([CH2]CCC)[O]CC(CN2CCCC2)[O]1 (stereo unspecified)	17.3	31.4 µM	8.45	23.8	11.1	30.7	21.1	37.1 µM	16.9	32.5	14.3	50.4 µM	22.4	37.8 µM	11.5	27.6 µM	12	24.3 µM	17	31.3
COC1(OC)C2(Cl)C(Cl)=C(Cl)C1(Cl)C1C=CC=CC12 (stereo unspecified)	–	> 100 µM	–	> 100	–	> 100	–	> 100 µM	–	> 100	–	–	–	> 100 µM	–	> 100 µM	–	> 100 µM	–	> 100
Cc1cccc(NC(=O)/C(=N\NC(C)(C)C)C2NC(=S)NC2=O)c1C (stereo unspecified)	–	> 100 µM	–	–	–	–	–	> 100 µM	–	> 100	–	> 100 µM	–	–	–	> 100 µM	–	> 100 µM	–	> 100
COc1ccccc1CNCCCN1C(=O)c2ccc3c4c(ccc(c24)C1=O)C(=O)N(CCCOCCCCOCCCN)C3=O	1.21	2.57 µM	2.1	4.61	0.402	1.29	1.25	3.67 µM	1.42	4.82	0.538	2.55 µM	0.771	2.2 µM	0.357	1.54 µM	1.97	3.93 µM	1.55	3.15
NS(=O)(=O)c1ccc(NC2(C(=O)O)CCCC2)cc1	–	> 100 µM	–	> 100	–	> 100	–	> 100 µM	–	> 100	–	> 100 µM	–	> 100 µM	–	> 100 µM	–	> 100 µM	–	> 100
COc1cc2c(c(OC)c1OC)-c1ccc(OC)c(=O)cc1[C@@H](NC(=O)c1ccccc1)CC2	0.104	30 µM and > 100 µM	–	6.68	0.00658	–	0.00587	30 µM and 55.2 µM	–	8.46	< 0.003	30 µM and > 73.2 µM	< 0.003	8.22 µM and 3.18 µM	< 0.003	30 µM and > 81.4 µM	0.0806	30 µM and > 100 µM	> 30	> 100
Cn1c(=O)c(C(c2ccc([N+](=O)[O-])cc2)c2c(O)c3ccccc3n(C)c2=O)cc2ccccc21 (stereo unspecified)	–	> 100 µM	–	> 100	–	> 100	–	> 100 µM	–	> 100	–	> 100 µM	–	> 100 µM	–	> 100 µM	–	84.7 µM	–	> 100
COC(=O)/C(=N\Nc1nnc(C)n1N)C(C#N)c1ccc(Cl)cc1 (stereo unspecified)	–	> 100 µM	–	> 100	–	> 100	–	> 100 µM	–	> 100	–	–	–	> 100 µM	–	> 100 µM	–	> 100 µM	–	> 100
